Experimental data published in patent EP0037224A1, “Rare earth metal carboxylates, their use as antimicrobial agents, and medicinal, cosmetic and cleansing compositions containing them” (THE PROCTER & GAMBLE COMPANY, priority 1980, dated 1981).

Columns and labels:
S. aureus = experiment: Minimum Bactericidal Concentration test; type: cell-based; settings: 10-minute contact with the test agent at 37°C; at least a 3 log unit reduction in viable cell count
E. coli = experiment: Minimum Bactericidal Concentration test; type: cell-based; settings: 10-minute contact with the test agent at 37°C; at least a 3 log unit reduction in viable cell count
Staphylococcus = settings: cited from earlier work
molds = settings: cited from earlier work

| Compound | Minimum Bactericidal Concentration S. aureus (S. aureus) | Minimum Bactericidal Concentration E. coli (E. coli) | concentration that inhibits Staphylococcus (Staphylococcus) | concentration that inhibits molds (molds) |
| --- | --- | --- | --- | --- |
| O.O.O.O.O.O.O.O.O=S(=O)([O-])[O-].O=S(=O)([O-])[O-].O=S(=O)([O-])[O-].[La+3].[La+3] [La2(SO4)3.8H2O] | >7100 ppm | >7100 ppm |  |  |
| O.O.O.O.O.O.O=[N+]([O-])[O-].O=[N+]([O-])[O-].O=[N+]([O-])[O-].[La+3] [La(NO3)3.6H2O] | >4300 ppm | >4300 ppm |  |  |
| O.O.O.O.O.O.[Cl-].[Cl-].[Cl-].[La+3] [LaCl3.6H2O] | >3500 ppm | >3500 ppm |  |  |
| O=[N+]([O-])[O-].O=[N+]([O-])[O-].O=[N+]([O-])[O-].[Ce+3] [cerium nitrate] |  |  | 1000 ppm | 1000 ppm |
